Source: patent US8741867B2, “Retinoid-liposomes for treating fibrosis” (Nitto Denko Corporation, priority 2011, dated 2014)
Like-named read-outs stand apart in the source and are kept apart here. d = 2'-deoxy (DNA); r = 2'-OH (RNA)

Legend:
293_HSP47-GFP cell line [1] = test: Cell viability of 293_HSP47-GFP cells treated with siNA (CellTiter-Glo); conditions: normalized to scrambled siRNA
Procedure: (§2) Cells treated with or without siNA were measured for viability after 72 hours incubation using CellTiter-Glo Luminescent Cell Viability Assay Kit according to the manual (Promega). The readings were normalized to samples treated with scrambled siNA molecules.
(§3) The 293_HSP47-GFP and 293_GP46-GFP cell lines treated with siRNA against hsp47 and gp46 were evaluated for viability using the methods described in Example 2. The cell viability was normalized to cells treated with scrambled siRNA (Ambion).

human HSP47 = test: Inhibitory efficiency of siHsp47 in 293_HSP47-GFP reporter cell line (GFP fluorescence); format: cell-based; conditions: 293_HSP47-GFP cell line, normalized to scrambled siRNA
Description: (§1) The fluorescent signals were normalized to fluorescent signals from cells treated with scrambled siRNA (Ambion) which served as a control.

rat gp46 [2] = test: Inhibitory efficiency of siHsp47 in 293_GP46-GFP reporter cell line (GFP fluorescence); format: cell-based; conditions: 293_GP46-GFP cell line, normalized to scrambled siRNA
Description: as §1

293_GP46-GFP cell line = format: cell-based, human
Procedure: as §2, §3

hsp47 mRNA = test: siHsp47 inhibitory effect on hsp47 mRNA by TaqMan qPCR in hTERT cells; format: cell-based, human; conditions: 72 hours after transfection, normalized to GAPDH
Procedure: In Example 14, the knock down efficiency of siHsp47s in reporter cell lines was evaluated by change in fluorescent signal. To validate the results at the mRNA level, siRNAs targeting endogenous hsp47 were transfected into cells of the human HSC cell line hTERT using Lipofectamine RNAiMAX (Invitrogen) in a reverse transfection manner as described in Example 13
The hsp47 mRNA level was evaluated for knock down efficiency of the various tested siHsp47 siNA molecules. Briefly, mRNA were isolated from hTERT cells after 72 hours after transfection using an RNeasy mini kit (Qiagen). The level of hsp47 mRNA was determined by reverse transcription coupled with quantitative PCR using TaqMan® probes. Briefly, cDNA synthesis was carried out using High-Capacity cDNA Reverse Transcription Kit (ABI) according to the manufacturer's instruction, and subjected to TaqMan Gene Expression Assay (ABI, hsp47). The level of hsp47 mRNA was normalized to the level of GAPDH mRNA according to the manufacturer's instruction (ABI).

HSP47 protein = test: siHsp47 knock down effect at the protein level in hTERT cells (western blot); format: cell-based, human; conditions: hTERT cell lysate
Procedure: The inhibitory effect of different Hsp47 siNA molecules (siHsp47) on hsp47 mRNA expression were validated at the protein level by measuring the HSP47 in hTERT cells transfected with different siHsp47. Transfection of hTERT cells with different siHsp47 were performed as described in Example 13. Transfected hTERT cells were lysed and the cell lysate were clarified by centrifugation. Proteins in the clarified cell lysate were resolved by SDS polyacrylamide gel electrophoresis. The level of HSP47 protein in the cell lysate were determined using an anti-HSP47 antibody (Assay Designs) as the primary antibody, Goat anti-mouse IgG conjugated with HRP (Millipore) as the secondary antibody, and subsequently detected by Supersignal West Pico Chemiluminescence kit (Pierce). Anti-actin antibody (Abcam) was used as a protein loading control.

collagen I mRNA = test: Downregulation of collagen I expression by hsp47 siRNA in hTERT cells (TaqMan qPCR); format: cell-based, human; conditions: 72 hours, normalized to GAPDH and scrambled siNA
Procedure: To determine the effect of siHsp47 on collagen I expression level, collagen I mRNA level in hTERT cells treated with different siRNA against hsp47 was measured. Briefly, hTERT cells were transfected with different siHsp47 as described in Example 13. The cells were lysed after 72 hours and mRNA were isolated using RNeasy mini kit according to the manual (Qiagen). The level of collagen 1 mRNA was determined by reverse transcription coupled with quantitative PCR using TaqMan® probes. Briefly, cDNA synthesis was carried out using High-Capacity cDNA Reverse Transcription Kit (ABI) according to the manual, and subjected to TaqMan Gene Expression Assay (ABI, COL 1A1 assay). The level of collagen I mRNA was normalized to the level of GAPDH mRNA according to the manufacturer's instruction (ABI). The signals were normalized to the signal obtained from cells transfected with scrambled siNA.

293_HSP47-GFP cell line [3] = tested on: 293_HSP47-GFP cell line
Procedure: as §2, §3

rat gp46 [4] = test: Inhibition of gp46 expression by prepared siRNA in NRK cells (western blot); format: cell-based
Procedure: Normal rat kidney cells (NRK cells), which had rat gp46 and were fibroblasts producing collagen, were transfected with 0.1 nM to 50 nM siRNA and cultured for 12 to 48 hours (FIG. 1). The amount of expression of gp46 was checked by the western blot method (FIGS. 2 to 4, upper band corresponding to gp46, lower band corresponding to actin control). All of the siRNAs inhibited the expression of gp46 protein remarkably compared with a vehicle (FIG. 2).

[5] = tested on: rat fibroblasts (NRK cells); test: Inhibition of collagen synthesis by siRNA (3H-proline, collagenase-sensitive fraction); format: cell-based; conditions: siRNA 50 nM, 48 hours, compared with control group
Procedure: In order to examine the amount of collagen synthesized, ^3H-proline was added to the culture supernatant of rat fibroblasts (NRK cells) under the above-mentioned conditions (siRNA concentration 50 nM, time 48 hours), and after transfection the amount of ^3H in secreted protein was examined (FIG. 5). The amount of collagen synthesized was calculated from the ratio of protein secreted in the supernatant to protein degraded by collagenase when culturing gp46siRNA-transfected fibroblasts in the presence of ^3H-proline in accordance with Peterkofsky et al., 1971 Biochemistry 10:988-94. Collagen synthesis ratio=collagenase−sensitive fraction×100(5.4×collagenase−insensitive fraction+collagenase−sensitive fraction)
The collagen synthesis ratio in rat fibroblasts decreased by about 40% compared with a control group (FIG. 6).

Hsp47-7: siRNA to human hsp47 cDNA 692-710, 19-mer duplex; SEQ ID NO 57/58 (chain 1 CCGUGGGUGUCAUGAUGAUUU; chain 2 AUCAUCAUGACACCCACGGUU; chemistry not fully specified)
cell viability / cytotoxicity (293_HSP47-GFP cell line [1]): lower

siHsp47-2d: siRNA to human hsp47 cDNA 469-493, 25-mer duplex; sense GAGCACUCCAAGAUCAACUUCCGdCdG (SEQ ID NO 25/26) (sense GAGCACUCCAAGAUCAACUUCCGCG; antisense GCGGAAGUUGAUCUUGGAGUGCUCUU; sense: sugars from the 5' end r23 d2, backbone not given here; antisense: chemistry not given here)
knockdown of human HSP47 (GFP fluorescent signal) (human HSP47): efficiently knockdown
knockdown of rat GP46 (GFP fluorescent signal) (rat gp46 [2]): efficiently knockdown
cell viability / cytotoxicity (293_GP46-GFP cell line): without substantial cytotoxicity
knock down of hsp47 mRNA (remaining mRNA level) (hsp47 mRNA): next most effective
level of Hsp47 protein (HSP47 protein): significant decrease
collagen I mRNA level (collagen I mRNA): significantly reduced
cell viability / cytotoxicity (293_HSP47-GFP cell line [3]): without substantial cytotoxicity

Sequence A: siRNA for rat gp46, GUUCCACCAUAAGAUGGUAGACAAC (SEQ ID NO: 2728) (chemistry not given here)
inhibition of gp46 expression, dependence on concentration (rat gp46 [4]; 0.1 nM to 50 nM siRNA): concentration dependent
inhibition of gp46 protein expression (rat gp46 [4]; 50 nM siRNA, 48 hours): about 90%
expression of gp46 protein (western blot) (rat gp46 [4]; 24 hour culturing, examination of optimal sequence, compared with vehicle): strongest effect
decrease of collagen synthesis ratio [5]: about 40%

siHsp47-2: siRNA to human hsp47 cDNA 469-487, 19-mer duplex; sense GAGCACUCCAAGAUCAACUdTdT (SEQ ID NO 21/22) (sense GAGCACUCCAAGAUCAACUTT; antisense AGUUGAUCUUGGAGUGCUCTT; sugars from the 5' end r19 d2, backbone not given here)
knockdown of human HSP47 (GFP fluorescent signal) (human HSP47): efficiently knockdown
knockdown of rat GP46 (GFP fluorescent signal) (rat gp46 [2]): efficiently knockdown
cell viability / cytotoxicity (293_GP46-GFP cell line): without substantial cytotoxicity
knock down of hsp47 mRNA (remaining mRNA level) (hsp47 mRNA): next most effective
collagen I mRNA level (collagen I mRNA): significantly reduced
cell viability / cytotoxicity (293_HSP47-GFP cell line [3]): without substantial cytotoxicity

siHsp47-6: siRNA to human hsp47 cDNA 446-464, 19-mer duplex; SEQ ID NO 53/54 (chain 1 GCAGCAAGCAGCACUACAAUU; chain 2 UUGUAGUGCUGCUUGCUGCUU; chemistry not fully specified)
cell viability / cytotoxicity (293_HSP47-GFP cell line [1]): lower

siHsp47-C: siRNA to human and rat hsp47, 19mer duplex, dTdT overhangs; sense GGACAGGCCUCUACAACUAdTdT (SEQ ID NO 5/6) (sense GGACAGGCCUCUACAACUATT; antisense UAGUUGUAGAGGCCUGUCCTT; sugars from the 5' end r19 d2, backbone not given here)
knockdown of human HSP47 (GFP fluorescent signal) (human HSP47): efficiently knockdown
knockdown of rat GP46 (GFP fluorescent signal) (rat gp46 [2]): efficiently knockdown
cell viability / cytotoxicity (293_GP46-GFP cell line): without substantial cytotoxicity
knock down of hsp47 mRNA (remaining mRNA level) (hsp47 mRNA): most effective
level of Hsp47 protein (HSP47 protein): significant decrease
cell viability / cytotoxicity (293_HSP47-GFP cell line [3]): without substantial cytotoxicity
